Test results reported in patent publication EP0197829A1, “5H-pyrido[3',4':4,5]pyrrolo[3,2-c]pyridine derivatives, process for their preparation and their antitunour activity” (SANOFI, priority 1985, dated 1986).
Read-outs that look alike come from different tables or passages of the source.

Tests used:
souris BDF1 saines = assay: in vivo; details: mouse, ip, 200 mg/kg
Experimental: Ainsi, l'administration à des souris hybrides CDF1 saines, en une injection unique par la voie intrapéritonéale, de doses croissantes des composés à tester (5 mg, 10 mg, 20 mg, 40 mg/kg) a permis de constater que, à ces doses, les produits étaient parfaitement tolérés puisque le taux de survivants était de 100 p. 100.
Dans les mêmes conditions, administrés à des souris BDF1 saines, les taux de survivants étaient de 100 p. 100 jusqu'à 100 mg/kg pour les dérivés 1, 3 et 9 et jusqu'à 200 mg/kg pour les dérivés 2 et 8.

[1] = system: lignée tumorale leucémie L 1210; assay: In vitro cytotoxicity on L 1210 leukemia cell culture; assay type: cell-based; details: concentration inhibiting cell proliferation by 50 p. 100, after 48 h contact; read-out: ID 50 (the source's name)
Experimental: 1) In vitro : (PAOLETTI et al., Chem. Biol. Interaction, 1979, 25, 45-58).
L'activité cytotoxique des composés de l'invention a été évaluée par des essais in vitro. Ces essais consistent à ajouter des concentrations croissantes du composé à tester à une culture cellulaire de la lignée tumorale leucémie L 1210 en phase exponentielle de croissance. Les cellules sont incubées à 37°C dans une étuve à C02 et comptées toutes les 24 heures. Le calcul de l'ID 50 (concentration du produit exprimée en micromole 1^-1 qui inhibe la prolifération cellulaire à 50 p. 100) est effectué après 48 heures de contact. Ainsi déterminées, les ID 50 des composés de l'invention sont rassemblées dans le tableau I ci-après : […]

leucémie P 388 = assay type: in vivo, souris hybrides CDF1; details: for Survivants: at day J 40
Excerpt: L'activité antitumorale a été testée in vivo sur différentes tumeurs selon le protocole général suivant : Toutes les souris mâles ou femelles sont inoculées par voie intrapéritonéale au jour Jo avec une quantité déterminée de cellules tumorales viables, variable selon la tumeur.
Elles sont ensuite réparties en différents lots. Chaque lot correspondant aux animaux traités par le produit à tester à une dose déterminée est composé de lO souris. Dans ce cas, le produit à tester est dissous dans l'eau distillée et il est administré, pendant n jours (J1-Jn) variables selon le protocole choisi, par voie intrapéritonéale à raison de 0,1 ml par lO g de poids des souris traitées, les doses du produit administré étant précisées dans les tableaux ci-dessous.
Le lot "Contrôle négatif", correspondant aux animaux qui ne sont pas traités par un produit, comprend 2 √N animaux, N étant égal au nombre total de souris traitées par un produit.
Enfin, tous lés essais sont conduits parallèlement à l'étude d'un lot appelé "Contrôle positif" de 10 animaux qui est traité par une molécule active, variable selon le protocole choisi, dans les mêmes conditions que les lots traités par le produit à tester, afin de valider l'essai.
L'activité antitumorale est évaluée en considérant l'augmentation du temps de survie des animaux traités par rapport à celui des animaux du lot "Contrôle négatif" selon la formule : • Jour médian de survie des animaux traités à une T/C = dose donnée de produit x 100 • Jour médian de survie des animaux "Contrôle négatif"
Un composé est considéré comme étant actif lorsque la valeur du rapport T/C est égale ou supérieure à 125 % selon le protocole retenu. Il est toxique lorsque cette valeur est égale ou inférieure à 85 %. Le produit est également considéré comme toxique lorsque la variation pondérale, exprimée en grammes et calculée par la formule : Poids moyen du lot mesuré au jour 5 - poids moyen du même lot au jour 1, est égale ou inférieure à -4g . a) Test de la leucémie P 388 (GERAN et al., Cancer Chemother, 1972, 2, 07-57).
Les essais sont effectués avec des souris hybrides CDF1 inoculées par voie intrapéritonéale avec […] leucémiques de la lignée P 388. Le composé à tester est administré pendant 5 jours (Jl-J5). Le contrôle positif du test est le 5-fluorouracile qui est administré dans les mêmes conditions.
[…] Un composé est considéré comme étant actif lorsque le rapport T/C est supérieur à 127 %.

## diméthyl-4,5[(éthylamino-3 propyl-1)amino]-1 5-H pyrido[3',4':4,5]pyrrolo[3,2-c]pyridine [Dérivé N° 8]
Souris BDF1 saines
  taux de survivants: 100 p. 100
[1]
  IC50: 3.8 µM
leucémie P 388; 5 mg/kg i.p. J1-J5
  Jour médian de survie: 13,4
  T/C %: 116%
  Survivants: 0
leucémie P 388; 10 mg/kg i.p. J1-J5
  Jour médian de survie: 14,62
  T/C %: 127%
  Survivants: 0
leucémie P 388; 20 mg/kg i.p. J1-J5
  Jour médian de survie: 16,75
  T/C %: 145%
  Survivants: 0
leucémie P 388; 40 mg/kg i.p. J1-J5
  Jour médian de survie: 16,0
  T/C %: 138%
  Survivants: 0
leucémie P 388; 80 mg/kg i.p. J1-J5
  Jour médian de survie: 17,25
  T/C %: 149%
  Survivants: 0
